{"source": "patent US11371020B2", "about": "“Uses of epithelial-to-mesenchymal inhibitors in generating pacemaker cells” (Emory University, priority 2016, dated 2022)", "key": {"[1]": {"system": "TBX18-induced pacemaker cells (TBX18-iPCs)", "assay": "Electrode-to-electrode impedance measurement of migration of TBX18-iPCs", "format": "cell-based, rat", "settings": "A83-01 0.5 microM; NRVM transduced with adenoviral human TBX18", "experimental": "TBX18-iPCs were created by transducing freshly isolated neonatal rat ventricular myocytes (NRVM) with an adenoviral vector expressing human TBX18. TBX18-iPC were cultured with an inhibitor of EMT, A83-01 (0.5 microM).\n(§1) Experiments were performed to test whether i) TBX18-induced pacemaker cells (TBX18-iPCs) migrate, and ii) inhibition of EMT in TBX18-iPCs may stop the migration, thereby enhancing its pacing function. (See FIGS. 1-8). TBX18-iPCs were created by transducing freshly-isolated neonatal rat ventricular myocytes (NRVM) with an adenoviral vector expressing human TBX18. TBX18-iPC were cultured with an inhibitor of EMT, A83-01. […] TBX18-iPCs beat in synchrony upon EMT inhibition, and their automaticity persists over long-term."}, "[2]": {"target": "T1, ALK-5 (Homo sapiens, UniProt P36897)", "T1 sequence (P36897 34-503)": "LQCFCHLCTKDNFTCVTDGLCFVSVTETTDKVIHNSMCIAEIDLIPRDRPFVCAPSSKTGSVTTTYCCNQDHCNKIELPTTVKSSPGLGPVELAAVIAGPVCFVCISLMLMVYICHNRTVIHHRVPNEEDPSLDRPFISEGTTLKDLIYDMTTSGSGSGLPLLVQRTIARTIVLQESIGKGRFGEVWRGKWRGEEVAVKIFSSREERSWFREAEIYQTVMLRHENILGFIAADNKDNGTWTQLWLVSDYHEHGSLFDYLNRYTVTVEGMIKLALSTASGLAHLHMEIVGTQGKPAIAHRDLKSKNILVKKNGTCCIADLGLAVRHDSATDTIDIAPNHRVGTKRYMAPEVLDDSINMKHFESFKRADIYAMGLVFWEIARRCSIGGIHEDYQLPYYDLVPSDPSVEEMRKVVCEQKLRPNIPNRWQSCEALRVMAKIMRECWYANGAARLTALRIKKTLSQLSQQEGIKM", "settings": "cited from earlier work"}, "[3]": {"system": "TBX18-induced pacemaker cells (TBX18-iPCs)", "assay": "Beating, field potential and Ca2+ transient recording of TBX18-iPCs", "format": "cell-based, rat", "experimental": "as §1"}, "[4]": {"system": "TBX18-iPCs", "assay": "Cx43 localisation, gap junctional coupling and Hcn4 expression in TBX18-iPCs", "format": "cell-based, rat", "experimental": "as §1\nTBX18 mediates both automaticity and EMT in iPCs."}, "[5]": {"system": "EMT genes", "assay": "EMT-related gene expression in TBX18-induced pacemaker cells", "format": "cell-based, rat", "settings": "TBX18-iPCs cultured with A83-01", "experimental": "as §1"}}, "note": "Entries after “also recorded” stand apart in the source; their conditions may differ.", "data": [{"smiles": "Cc1cccc(-c2nn(C(=S)Nc3ccccc3)cc2-c2ccnc3ccccc23)n1", "note": "[A83-01, 3-(6-methyl-2-pyridinyl)-N-phenyl-4-(4-quinolinyl)-1H-pyrazole-1-carbothioamide]", "values": [{"measurement": "migration of TBX18-iPCs", "setting": "[1]", "result": "remain stationary; also recorded: migratory behavior is deleted"}, {"measurement": "Smad signaling and epithelial-to-mesenchymal transition by transforming growth factor-beta", "setting": "[2]", "result": "inhibits"}, {"measurement": "persistence of automaticity of iPMs", "setting": "[3]; in A83-01 versus without it", "result": "persists much longer"}, {"measurement": "synchrony of pacing", "setting": "[3]; in the presence of A83-01", "result": "synchronous and rhythmic pacing; also recorded: pace in unity"}, {"measurement": "beating rate of TBX18-iPCs", "setting": "[3]; upon EMT inhibition", "result": "beating rate increases"}, {"measurement": "contraction and relaxation speed of TBX18-iPCs", "setting": "[3]; upon EMT inhibition", "result": "contract and relax faster"}, {"measurement": "gap junctional coupling of EMT-inhibited TBX18-iPCs", "setting": "[4]", "result": "long-term gap junctional coupling"}, {"measurement": "Hcn4 expression in TBX18-iPCs", "setting": "[4]; upon EMT inhibition", "result": "enhances Hcn4 expression"}, {"measurement": "localisation of nuclear-bound Cx43 proteins in TBX18-iPCs", "setting": "[4]; upon EMT inhibition", "result": "translocated to the sarcolemma"}, {"measurement": "EMT gene expression in the iPCs", "setting": "[5]", "result": "down-regulates EMT genes"}]}]}
